Measurements taken from article PMC5004176, “The antifungal plant defensin AtPDF2.3 from Arabidopsis thaliana blocks potassium channels” (Scientific Reports, 2016).
Ends that are not written are not given here.

Key:
Nav1.2 = test: Two-electrode voltage-clamp on Nav1.2 expressed in X. laevis oocytes; format: cell-based; details: 5 μM, n ≥ 4
Nav1.4 = test: Two-electrode voltage-clamp on Nav1.4 expressed in X. laevis oocytes; format: cell-based; details: 5 μM, n ≥ 4
insect channel DmNav1 = test: Two-electrode voltage-clamp on DmNav1 expressed in X. laevis oocytes; format: cell-based; details: 5 μM, n ≥ 4
Botrytis cinerea R16 = test: Fungal growth inhibitory assay; format: cell-based; details: half strength PDB, 10^4 spores/mL, 48 hours, determined microscopically, n ≥ 3; read-out: IC50 (growth inhibition)
Fusarium oxysporum = test: Fungal growth inhibitory assay; format: cell-based; details: half strength PDB, 10^4 spores/mL, 48 hours, determined microscopically, n ≥ 3; read-out: IC50 (growth inhibition)
Fusarium culmorum = test: Fungal growth inhibitory assay; format: cell-based; details: half strength PDB, 10^4 spores/mL, 48 hours, determined microscopically, n ≥ 3; read-out: IC50 (growth inhibition)
plant pathogenic fungi = test: Fungal growth inhibitory assay, whole panel; format: cell-based; details: range over the fungal panel of Table 1, 48 hours; read-out: IC50 values against all plant pathogenic fungi tested (range)
[1] = system: Saccharomyces cerevisiae BY4743 WT; test: Yeast growth inhibitory assay; format: cell-based; details: MM medium, 24 hours, OD490nm, mean ± SEM, n ≥ 3, read-out: IC50 (growth inhibition)
[2] = system: Saccharomyces cerevisiae BY4741 ∆trk1; test: Yeast growth inhibitory assay; format: cell-based; details: BY4741 ∆trk1, MM medium, 24 hours, OD490nm, mean ± SEM, n ≥ 3; read-out: IC50 (growth inhibition)
[3] = system: Saccharomyces cerevisiae BY4741 ∆hal5; test: Yeast growth inhibitory assay; format: cell-based; details: BY4741 ∆hal5, MM medium, 24 hours, OD490nm, mean ± SEM, n ≥ 3; read-out: IC50 (growth inhibition)
[4] = system: Saccharomyces cerevisiae BY4741 ∆prm6; test: Yeast growth inhibitory assay; format: cell-based; details: BY4741 ∆prm6, MM medium, 24 hours, OD490nm, mean ± SEM, n ≥ 3; read-out: IC50 (growth inhibition)
[5] = system: Saccharomyces cerevisiae BY4741 ∆arl1; test: Yeast growth inhibitory assay; format: cell-based; details: BY4741 ∆arl1, MM medium, 24 hours, OD490nm, mean ± SEM, n ≥ 3; read-out: IC50 (growth inhibition)
[6] = system: Saccharomyces cerevisiae BY4741 ∆sat4; test: Yeast growth inhibitory assay; format: cell-based; details: BY4741 ∆sat4, MM medium, 24 hours, OD490nm, mean ± SEM, n ≥ 3; read-out: IC50 (growth inhibition)
[7] = system: Saccharomyces cerevisiae BY4741 ∆vhc1; test: Yeast growth inhibitory assay; format: cell-based; details: BY4741 ∆vhc1, MM medium, 24 hours, OD490nm, mean ± SEM, n ≥ 3; read-out: IC50 (growth inhibition)
[8] = system: Saccharomyces cerevisiae BY4741 ∆tok1; test: Yeast growth inhibitory assay; format: cell-based; details: BY4741 ∆tok1, MM medium, 24 hours, OD490nm, mean ± SEM, n ≥ 3; read-out: IC50 (growth inhibition)
[9] = system: Saccharomyces cerevisiae BY4741 ∆nha1; test: Yeast growth inhibitory assay; format: cell-based; details: BY4741 ∆nha1, MM medium, 24 hours, OD490nm, mean ± SEM, n ≥ 3; read-out: IC50 (growth inhibition)
[10] = system: Saccharomyces cerevisiae BY4741 ∆ppz1; test: Yeast growth inhibitory assay; format: cell-based; details: BY4741 ∆ppz1, MM medium, 24 hours, OD490nm, mean ± SEM, n ≥ 3; read-out: IC50 (growth inhibition)
[11] = system: Saccharomyces cerevisiae BY4741 ∆kch1; test: Yeast growth inhibitory assay; format: cell-based; details: BY4741 ∆kch1, MM medium, 24 hours, OD490nm, mean ± SEM, n ≥ 3; read-out: IC50 (growth inhibition)
[12] = system: Saccharomyces cerevisiae BY4741 ∆kkq8; test: Yeast growth inhibitory assay; format: cell-based; details: BY4741 ∆kkq8, MM medium, 24 hours, OD490nm, mean ± SEM, n ≥ 3; read-out: IC50 (growth inhibition)
HepG2 cells = format: cell-based; details: up to 25 μM, 24 hours, XTT, relative to untreated, at least two experiments in quadruplicate
Procedure: HepG2 cells were seeded at 10.000 cells/well in 96-well plates and incubated for 24 hours. Subsequently, cells were treated either with water (untreated) or rAtPDF2.3 (0.01 μM–23.5 μM) for 24 hours after which cell viability was determined using the ‘Cell Proliferation Kit II (XTT) as described previously. ANOVA followed by Dunnett post hoc test was performed to analyze statistically significant differences between untreated and rAtPDF2.3-treated samples.
Supplementary Figure S4 Activity of rAtPDF2.3 on HepG2 cell viability. HepG2 cells were treated either with water (untreated) or rAtPDF2.3 (0.01 µM – 24.3 µM) for 24 hours, after which cell viability was determined by XTT staining. Results are expressed relative to the untreated samples. Mean ± standard error of at least two experiments in quadruplicate is shown. ANOVA followed by Dunnet post hoc test performed to analyze statistically significant differences between untreated and rAtPDF2.3-treated samples; * represents P = 0.03.
(1 picture or pasted object on this page, not shown here)

Kv1.2 channels = test: Two-electrode voltage-clamp on Kv1.2 expressed in X. laevis oocytes; details: for inhibition of the potassium current: Kv1.2, n ≥ 5
Procedure: (§1) For the expression of the voltage-gated potassium channels (rKv1.1, rKv1.2, hKv1.3, rKv1.4, rKv1.5, rKv1.6, Shaker IR, hKv3.1, rKv4.3, and hERG) in Xenopus laevis oocytes, the linearized plasmids were transcribed using the T7 or SP6 mMESSAGE-mMACHINE transcription kit (Ambion). The harvesting of stage V–VI oocytes from an anaesthetized female X. laevis frog was previously described[59]. Oocytes were injected with 50 nL of cRNA at a concentration of 1 ng/nL using a micro-injector (Drummond Scientific, USA). The oocytes were incubated in a solution containing (in mM): NaCl, 96; KCl, 2; CaCl2, 1.8; MgCl2, 2 and HEPES, 5 (pH 7.4), supplemented with 50 mg/L gentamycin sulfate.
Two-electrode voltage-clamp recordings were performed at room temperature (18–22 °C) using a Geneclamp 500 amplifier (Molecular Devices, USA) controlled by a pClamp data acquisition system (Axon Instruments, USA). Whole cell currents from oocytes were recorded 1–4 days after injection. Bath solution composition was ND96 (in mM): NaCl, 96; KCl, 2; CaCl2, 1.8; MgCl2, 2 and HEPES, 5 (pH 7.4) or HK (in mM): NaCl, 2; KCl, 96; CaCl2, 1.8; MgCl2, 2 and HEPES, 5 (pH 7.4). Voltage and current electrodes were filled with 3 M KCl. Resistances of both electrodes were kept between 0.7 and 1.5 MΩ. The elicited currents were filtered at 0.5 kHz and sampled at 2 kHz (for potassium currents) or filtered at 2 kHz and sampled at 20 kHz (for sodium currents) using a four-pole low-pass Bessel filter. Leak subtraction was performed using a -P/4 protocol. Kv1.1–Kv1.6 and Shaker currents were evoked by 250 ms depolarizations to 0 mV followed by a 250 ms pulse to −50 mV, from a holding potential of −90 mV. Current traces of hERG channels were elicited by applying a +40 mV prepulse for 2 s followed by a step to −120 mV for 2 s. […] In order to investigate the current–voltage relationship, current traces were evoked by 10 mV depolarization steps from a holding potential of −90 mV. To assess the concentration dependency of the toxin induced inhibitory effects, a concentration–response curve was constructed, in which the percentage of current inhibition was plotted as a function of toxin concentration. Data were fitted with the Hill equation: y = 100/[1 + (IC50/[toxin])^h], were y is the amplitude of the toxin-induced effect, IC50 is the toxin concentration at half-maximal efficacy, [toxin] is the toxin concentration, and h is the Hill coefficient. GV curves were calculated from IV relationships as follows: gK = IK/(Em−EK) with EK = (RT/zF)ln[K #0]o/[K #0]i. In these equations gK represents the conductance, IK the potassium current, Em the membrane potential, EK the reversal potential, R the gas constant (8.31 J/K mol), T the temperature, z the charge of the ion (for K+ ions: z = 1), F the Faraday’s constant (96.500 C/mol), [K #0]o and [K #0]i respectively are the extracellular and intracellular K+ ion concentrations. The values of IK or gK were plotted as function of voltage and fitted using the Boltzmann equation: gK/gmax = [1 + exp(Vg−V)/k]−1, were gmax represents maximal gK, Vg is the voltage corresponding to half-maximal conductance, and k is the slope factor. Comparison of two sample means was made using a paired Student’s t test (P < 0.05). All data represent at least three independent experiments (n ≥ 3) and are presented as mean ± standard error.

Kv1.1 = test: Two-electrode voltage-clamp on Kv1.1 expressed in X. laevis oocytes; details: 3 μM, n ≥ 3
Procedure: as §1
(§2) Two-electrode voltage-clamp recordings were performed at room temperature (18–22 °C) using a Geneclamp 500 amplifier (Molecular Devices, USA) controlled by a pClamp data acquisition system (Axon Instruments, USA). Whole cell currents from oocytes were recorded 1–4 days after injection. Bath solution composition was ND96 (in mM): NaCl, 96; KCl, 2; CaCl2, 1.8; MgCl2, 2 and HEPES, 5 (pH 7.4) or HK (in mM): NaCl, 2; KCl, 96; CaCl2, 1.8; MgCl2, 2 and HEPES, 5 (pH 7.4). Voltage and current electrodes were filled with 3 M KCl. Resistances of both electrodes were kept between 0.7 and 1.5 MΩ. […] GV curves were calculated from IV relationships as follows: gK = IK/(Em−EK) with EK = (RT/zF)ln[K #0]o/[K #0]i. […]

Kv1.4 = test: Two-electrode voltage-clamp on Kv1.4 expressed in X. laevis oocytes; details: 3 μM, n ≥ 3
Procedure: as §1, §2

Kv1.5 = test: Two-electrode voltage-clamp on Kv1.5 expressed in X. laevis oocytes; details: 3 μM, n ≥ 3
Procedure: as §1, §2

Kv4.2 = test: Two-electrode voltage-clamp on Kv4.2 expressed in X. laevis oocytes; details: 3 μM, n ≥ 3
Procedure: as §1, §2

Shaker IR = test: Two-electrode voltage-clamp on Shaker IR expressed in X. laevis oocytes; details: 3 μM, n ≥ 3
Procedure: as §1, §2

Substance: rAtPDF2.3: Arabidopsis thaliana plant defensin AtPDF2.3 produced recombinantly in Pichia pastoris (RTCESKSHRFKGPCVSTHNCANVCHNEGFGGGKCRGFRRRCYCTRHC; ends and bridges not checked; cysteine pairing not given here)
- activity on Nav1.2 (Nav1.2): does not show activity
- activity on Nav1.4 (Nav1.4): does not show activity
- activity on DmNav1 (insect channel DmNav1): does not show activity
- IC50 (Botrytis cinerea R16): 5.8 µM
- IC50 (Fusarium oxysporum): 4.4 ± 1.6 µM
- IC50 (Fusarium culmorum): 1 ± 0.4 µM
- IC50 (plant pathogenic fungi): 1 to 5.8 µM
- IC50 [1]: 3.3 µM
- IC50 [2]: 1.5 µM
- IC50 [3]: 4 ± 0.4 µM
- IC50 [4]: 7.6 ± 0.2 µM
- IC50 [5]: 5.7 ± 0.2 µM
- IC50 [6]: 5.1 ± 0.1 µM
- IC50 [7]: 8 ± 0.2 µM
- IC50 [8]: 7.7 ± 0.5 µM
- IC50 [9]: 9.1 ± 0.7 µM
- IC50 [10]: 10.1 ± 0.5 µM
- IC50 [11]: 8.9 ± 0.3 µM
- IC50 [12]: 7.1 ± 0.1 µM
- cell viability in HepG2 cells (HepG2 cells): does not reduce cell viability
- inhibition of the potassium current (Kv1.2 channels; 2 μM, HK solution): 66 ± 4%
- inhibition of the potassium current (Kv1.2 channels; 2 μM, ND96 solution): 59 ± 3%
- activity on Kv1.2 at single concentration (Kv1.2 channels; 3 μM, n ≥ 3): can block
- reversal potential EK after application of defensin (Kv1.2 channels; HK solution, 2 μM, Kv1.2, control −4 ± 1 mV, P > 0.05, n ≥ 4): −2 ± 1 mV
- V1/2 of gV curve in the presence of defensin (Kv1.2 channels; ND96, 2 μM, Kv1.2, control 8 ± 3 mV, n ≤ 4 as printed): 5 ± 2 mV
- reversibility of Kv1.2 block upon washout (Kv1.2 channels; current recovers quickly and completely upon washout (data not shown)): blocking is reversible
- IC50 (Kv1.2 channels; read-out: IC50 for Kv1.2, two-electrode voltage-clamp, X. laevis oocytes, concentration-response curve fitted with Hill equation, mean ± standard error, n ≥ 3): 1.3 ± 0.2 µM
- voltage dependence of inhibition of Kv1.2 channels (Kv1.2 channels; test potentials from −30 to +30 mV): not voltage-dependent
- activity on Kv1.1 at single concentration (Kv1.1): no effect
- activity on Kv1.4 at single concentration (Kv1.4): no effect
- activity on Kv1.5 at single concentration (Kv1.5): no effect
- activity on Kv4.2 (Shal) at single concentration (Kv4.2): no effect
- activity on Shaker IR at single concentration (Shaker IR): no effect
